Patent publication US20200353107A1, “IN VIVO IMAGING OF TUMOR INFILTRATION LEUKOCYTES” (STC.UNM, priority 2017, published 2020)

How the values were obtained:
[1] = target: T1, LFA-1 receptor (Mus musculus, UniProt P24063); assay: SPECT/CT imaging of mice after intravenous injection of the radioligand; format: in vivo
T1 construct: Leukocyte function-associated antigen-1 (LFA-1) receptors are normally expressed by all white blood cells; from tissue; host or cells: live mice (leukocytes in vivo)
Experimental: Mice are imaged with the Bioscan NanoSPECT/CT imaging system. Dynamic images are obtained immediately following injection of ˜750 uCi of ^111In-ROTA-alkylamino-NorBIRT intravenously. Static images are also obtained at 2, 4, and 24 hours post injection. Images are individually characterized.

[2] = Biodistribution study (gross dissection and tissue harvest); format: in vivo, mice; details: dissection at 18 and 24 hrs post-inoculation
Experimental: […] Results are evaluated as the percent injected dose per gram of tissue. The organs assessed are the heart, blood, stomach, liver, spleen, adrenals, kidneys, bone, muscle, bladder, testes, as well as the abcess or site of infection.

T1 sequence (P24063 24-1162): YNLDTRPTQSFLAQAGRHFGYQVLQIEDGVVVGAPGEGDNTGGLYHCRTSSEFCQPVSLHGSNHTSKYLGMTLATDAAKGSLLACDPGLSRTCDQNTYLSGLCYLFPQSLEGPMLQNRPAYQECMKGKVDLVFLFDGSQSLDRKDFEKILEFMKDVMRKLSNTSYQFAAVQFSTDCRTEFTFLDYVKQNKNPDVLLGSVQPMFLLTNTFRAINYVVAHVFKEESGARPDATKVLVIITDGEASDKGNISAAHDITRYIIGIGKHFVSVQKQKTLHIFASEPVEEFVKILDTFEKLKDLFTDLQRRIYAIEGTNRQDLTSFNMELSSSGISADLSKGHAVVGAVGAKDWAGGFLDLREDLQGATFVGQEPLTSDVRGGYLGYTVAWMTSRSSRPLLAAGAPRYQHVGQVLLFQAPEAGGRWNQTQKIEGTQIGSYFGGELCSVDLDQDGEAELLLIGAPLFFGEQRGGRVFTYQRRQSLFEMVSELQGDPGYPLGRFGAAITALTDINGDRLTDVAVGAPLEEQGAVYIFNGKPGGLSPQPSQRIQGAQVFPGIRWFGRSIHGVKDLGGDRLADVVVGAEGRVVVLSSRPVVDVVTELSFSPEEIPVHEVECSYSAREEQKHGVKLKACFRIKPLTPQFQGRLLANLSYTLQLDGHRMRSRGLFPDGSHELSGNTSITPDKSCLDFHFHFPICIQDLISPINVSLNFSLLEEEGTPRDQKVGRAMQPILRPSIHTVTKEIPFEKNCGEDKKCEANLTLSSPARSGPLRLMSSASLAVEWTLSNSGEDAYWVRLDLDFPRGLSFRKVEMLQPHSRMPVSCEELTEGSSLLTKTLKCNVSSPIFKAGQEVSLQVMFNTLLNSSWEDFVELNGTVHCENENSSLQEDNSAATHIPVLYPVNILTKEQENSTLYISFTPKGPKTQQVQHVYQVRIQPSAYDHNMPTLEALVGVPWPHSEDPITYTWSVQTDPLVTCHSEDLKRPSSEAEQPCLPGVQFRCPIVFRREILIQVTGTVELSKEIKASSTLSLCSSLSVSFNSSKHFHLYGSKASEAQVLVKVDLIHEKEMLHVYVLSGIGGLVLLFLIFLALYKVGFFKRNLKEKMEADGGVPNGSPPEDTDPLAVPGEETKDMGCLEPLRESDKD
T1 sequence (P11835 24-771 partner): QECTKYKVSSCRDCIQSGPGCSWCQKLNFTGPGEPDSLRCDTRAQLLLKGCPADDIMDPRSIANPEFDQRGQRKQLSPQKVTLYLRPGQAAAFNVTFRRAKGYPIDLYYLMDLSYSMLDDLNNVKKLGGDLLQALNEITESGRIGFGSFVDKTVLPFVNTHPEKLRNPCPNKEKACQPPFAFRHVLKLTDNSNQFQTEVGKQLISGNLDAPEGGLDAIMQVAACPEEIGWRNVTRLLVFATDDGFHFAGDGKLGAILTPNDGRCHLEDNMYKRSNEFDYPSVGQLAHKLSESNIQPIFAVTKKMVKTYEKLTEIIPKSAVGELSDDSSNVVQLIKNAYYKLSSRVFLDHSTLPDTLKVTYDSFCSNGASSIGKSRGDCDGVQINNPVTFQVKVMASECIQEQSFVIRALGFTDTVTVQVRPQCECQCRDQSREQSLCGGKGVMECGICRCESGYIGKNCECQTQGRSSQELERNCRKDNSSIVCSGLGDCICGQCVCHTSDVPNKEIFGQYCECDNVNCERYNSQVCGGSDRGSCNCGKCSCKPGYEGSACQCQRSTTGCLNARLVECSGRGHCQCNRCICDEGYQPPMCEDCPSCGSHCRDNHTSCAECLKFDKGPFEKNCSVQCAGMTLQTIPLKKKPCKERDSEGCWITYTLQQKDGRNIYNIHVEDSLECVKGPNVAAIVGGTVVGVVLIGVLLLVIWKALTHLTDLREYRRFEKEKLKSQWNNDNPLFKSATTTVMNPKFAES

uptake/retention at the tumor, early images ([1]; 5 minutes post-injection): high concentrations
focal retention in other tissues ([1]; SPECT/CT images): no focal retention in any other tissues
uptake in the tumor in SPECT/CT images ([1]; SPECT/CT images, mice, i.v.): focal uptake in the tumor
persistence of focal tumor uptake ([1]; all time points, including 24 hours post-injection): persists at all time points
urinary excretion in SPECT/CT images ([1]; as soon as 5 minutes post-injection and at all subsequent time points): prompt and significant urinary excretion
selectivity as imaging probe for LFA-1 receptor expression ([1]; in vivo SPECT/PET imaging of tumor sites): highly selective imaging probes
Substance: ^111In-DOTA-alkylamino-NorBIRT [^111In-alkylaminoNorBIRT]
radioactivity in the bladder ([1]; SPECT/CT images): prompt and significant radioactivity in the bladder
agreement of biodistribution data with image-based pharmacokinetic data [2]: correlate well with image-based pharmacokinetic data
